Measured values as given in article PMC11436758, “Computer-aided drug design to generate a unique antibiotic family” (Nature Communications, 2024).
Converted amounts (≈) assume the structure as drawn.

How the values were obtained:
Test in all cases: MIC, clinical and laboratory strains
Format in all cases: cell-based
S. epidermidis (VISE) = S. epidermidis (VISE) 2025
Method: (§1) The medium employed for the assay was Mueller Hinton II Broth (MHB II; Becton-Dickinson, Sparks, MD, USA). Agar plates used for the organisms were trypticase soy agar plus 5% sheep blood (BD; Sparks, MD, USA). MIC assay plates were prepared using the CLSI broth microdilution procedure. Automated liquid handlers (Multidrop 384, Biomek 2000 and Biomek FX) were used to conduct serial dilutions and liquid transfers. A standardized inoculum of each organism was prepared per CLSI methods. Suspensions were prepared to equal a 0.5 McFarland standard, followed by a 1:20 dilution in test media. The inocula were dispensed into sterile reservoirs divided by length (Beckman Colter) and the Biomek 2000 was used to inoculate the plates. Daughter plates were placed on the Biomek 2000 work surface in reverse orientation so that inoculation took place from low to high drug concentration. The Biomek 2000 delivered 10 μL of the diluted suspension into each well. These inoculations yielded a final cell concentration in the daughter plates of ~5 × 10^5 colony-forming units/mL in each well. The wells of the daughter plates ultimately contained 185 μL of broth, 5 μL of drug solution, and 10 μL of bacterial inoculum. Plates were covered with a sterile lid on the top plate, placed in plastic bags, and incubated at 35 °C for ~18 h. The microplates were viewed from the bottom using a plate viewer and the MIC was read. The MIC was recorded as the lowest concentration of drug that inhibited visible growth of the organism.

S. aureus (MSSA) = test system: S. aureus (MSSA)
Method: as §1

S. aureus (VISA) = test system: S. aureus (VISA)
Method: as §1

S. aureus (MRSA) = test system: S. aureus (MRSA)
Method: as §1

S. epidermidis (MRSE) = test system: S. epidermidis (MRSE)
Method: as §1

CC(C)c1cc(Cl)ccc1-c1cc(-c2nnn[nH]2)c(-c2ccc(Cl)cc2C(C)C)s1 [DNM0547]
MIC (S. epidermidis (VISE)): 4 µg/mL (≈ 8.74 µM)
MIC (S. aureus (MSSA); S. aureus (MSSA) 2127): 1 µg/mL (≈ 2.19 µM)
MIC (S. aureus (MSSA); S. aureus (MSSA) 6167): 2 µg/mL (≈ 4.37 µM)
MIC (S. aureus (MSSA); S. aureus (MSSA) 6168): 1 µg/mL (≈ 2.19 µM)
MIC (S. aureus (MSSA); S. aureus (MSSA) 6170): 1 µg/mL (≈ 2.19 µM)
MIC (S. aureus (MSSA); S. aureus (MSSA) 6316): 2 µg/mL (≈ 4.37 µM)
MIC (S. aureus (MSSA); S. aureus (MSSA) 6317): 1 µg/mL (≈ 2.19 µM)
MIC (S. aureus (MSSA); S. aureus (MSSA) 6318): 1 µg/mL (≈ 2.19 µM)
MIC (S. aureus (MSSA); S. aureus (MSSA) 6499): 2 µg/mL (≈ 4.37 µM)
MIC (S. aureus (MSSA); S. aureus (MSSA) 6500): 1 µg/mL (≈ 2.19 µM)
MIC (S. aureus (MSSA); S. aureus (MSSA) 6502): 1 µg/mL (≈ 2.19 µM)
MIC (S. aureus (VISA); S. aureus (VISA) 1724): 2 µg/mL (≈ 4.37 µM)
MIC (S. aureus (VISA); S. aureus (VISA) 2012): 2 µg/mL (≈ 4.37 µM)
MIC (S. aureus (VISA); S. aureus (VISA) 2013): 2 µg/mL (≈ 4.37 µM)
MIC (S. aureus (VISA); S. aureus (VISA) 2014): 2 µg/mL (≈ 4.37 µM)
MIC (S. aureus (VISA); S. aureus (VISA) 2015): 2 µg/mL (≈ 4.37 µM)
MIC (S. aureus (VISA); S. aureus (VISA) 2016): 2 µg/mL (≈ 4.37 µM)
MIC (S. aureus (VISA); S. aureus (VISA) 2017): 2 µg/mL (≈ 4.37 µM)
MIC (S. aureus (VISA); S. aureus (VISA) 2018): 2 µg/mL (≈ 4.37 µM)
MIC (S. aureus (VISA); S. aureus (VISA) 2019): 1 µg/mL (≈ 2.19 µM)
MIC (S. aureus (VISA); S. aureus (VISA) 2123): 2 µg/mL (≈ 4.37 µM)
MIC (S. aureus (VISA); S. aureus (VISA) NRS1/1723): 2 µg/mL (≈ 4.37 µM)
MIC (S. aureus (MRSA); S. aureus (MRSA) 2167): 1 µg/mL (≈ 2.19 µM)
MIC (S. aureus (MRSA); S. aureus (MRSA) 2168): 1 µg/mL (≈ 2.19 µM)
MIC (S. aureus (MRSA); S. aureus (MRSA) 2169): 2 µg/mL (≈ 4.37 µM)
MIC (S. aureus (MRSA); S. aureus (MRSA) 2170): 1 µg/mL (≈ 2.19 µM)
MIC (S. aureus (MRSA); S. aureus (MRSA) 2171): 1 µg/mL (≈ 2.19 µM)
MIC (S. aureus (MRSA); S. aureus (MRSA) 2293): 2 µg/mL (≈ 4.37 µM)
MIC (S. aureus (MRSA); S. aureus (MRSA) 2294): 1 µg/mL (≈ 2.19 µM)
MIC (S. aureus (MRSA); S. aureus (MRSA) 2295): 1 µg/mL (≈ 2.19 µM)
MIC (S. aureus (MRSA); S. aureus (MRSA) 2296): 1 µg/mL (≈ 2.19 µM)
MIC (S. aureus (MRSA); S. aureus (MRSA) 2297): 2 µg/mL (≈ 4.37 µM)
MIC (S. aureus (MRSA); S. aureus (MRSA) 3880): 1 µg/mL (≈ 2.19 µM)
MIC (S. aureus (MRSA); S. aureus (MRSA) 5373): 1 µg/mL (≈ 2.19 µM)
MIC (S. aureus (MRSA); S. aureus (MRSA) 5666): 1 µg/mL (≈ 2.19 µM)
MIC (S. aureus (MRSA); S. aureus (MRSA) 5702): 1 µg/mL (≈ 2.19 µM)
MIC (S. aureus (MRSA); S. aureus (MRSA) 5999): 1 µg/mL (≈ 2.19 µM)
MIC (S. aureus (MRSA); S. aureus (MRSA) 6165): 1 µg/mL (≈ 2.19 µM)
MIC (S. aureus (MRSA); S. aureus (MRSA) 6169): 1 µg/mL (≈ 2.19 µM)
MIC (S. aureus (MRSA); S. aureus (MRSA) 6174): 1 µg/mL (≈ 2.19 µM)
MIC (S. aureus (MRSA); S. aureus (MRSA) 6311): 1 µg/mL (≈ 2.19 µM)
MIC (S. aureus (MRSA); S. aureus (MRSA) 6312): 2 µg/mL (≈ 4.37 µM)
MIC (S. aureus (MRSA); S. aureus (MRSA) 6313): 1 µg/mL (≈ 2.19 µM)
MIC (S. aureus (MRSA); S. aureus (MRSA) 6315): 1 µg/mL (≈ 2.19 µM)
MIC (S. aureus (MRSA); S. aureus (MRSA) 6320): 1 µg/mL (≈ 2.19 µM)
MIC (S. aureus (MRSA); S. aureus (MRSA) 6498): 2 µg/mL (≈ 4.37 µM)
MIC (S. aureus (MRSA); S. aureus (MRSA) 6501): 2 µg/mL (≈ 4.37 µM)
MIC (S. aureus (MRSA); S. aureus (MRSA) 6505): 1 µg/mL (≈ 2.19 µM)
MIC (S. aureus (MRSA); S. aureus (MRSA) 6506): 2 µg/mL (≈ 4.37 µM)
MIC (S. aureus (MRSA); S. aureus (MRSA) NRS382/2119): 1 µg/mL (≈ 2.19 µM)
MIC (S. aureus (MRSA); S. aureus (MRSA) NRS383/2120): 1 µg/mL (≈ 2.19 µM)
MIC (S. aureus (MRSA); S. aureus (MRSA) NRS384/2011): 2 µg/mL (≈ 4.37 µM)
MIC (S. epidermidis (MRSE); S. epidermidis (MRSE) 3679): 2 µg/mL (≈ 4.37 µM)
MIC (S. epidermidis (MRSE); S. epidermidis (MRSE) 3680): 2 µg/mL (≈ 4.37 µM)
MIC (S. epidermidis (MRSE); S. epidermidis (MRSE) 3681): 1 µg/mL (≈ 2.19 µM)
MIC (S. epidermidis (MRSE); S. epidermidis (MRSE) 3683): 2 µg/mL (≈ 4.37 µM)
MIC (S. epidermidis (MRSE); S. epidermidis (MRSE) 3745): 8 µg/mL (≈ 17.5 µM)
MIC (S. epidermidis (MRSE); S. epidermidis (MRSE) 3746): 2 µg/mL (≈ 4.37 µM)
MIC (S. epidermidis (MRSE); S. epidermidis (MRSE) 3747): 2 µg/mL (≈ 4.37 µM)
